The NIST ThermoML archive (doi:10.1021/je100967k)
Numbers after ± are expanded uncertainties.

How the values were obtained:
[1] = refractive index (Na D-line) (dimensionless); xn = mol fraction of the nth substance listed; settings: 101 kPa, Liquid, Standard Abbe refractometry
[2] = xn = mol fraction of the nth substance listed; settings: 101 kPa, Liquid; for speed of sound: Pulse-echo method

NCCO [2-aminoethan-1-ol] + CN1CCCC1=O
Settings | mass density, [2] [kg/m3] | refractive index, [1] | speed of sound, [2] [m/s] | viscosity, [2] [mPa·s]
293.15 K, x2 = 0 | 1016.65 ± 0.52 | 1.4525 ± 0.0005 | 1735.9 ± 1.4 | 24.61 ± 0.35
293.15 K, x2 = 0.1 | 1017.8 ± 0.52 | 1.4546 ± 0.0005 | 1701.7 ± 1.4 | 17.43 ± 0.27
293.15 K, x2 = 0.209 | 1019.27 ± 0.53 | 1.4567 ± 0.0006 | 1673.2 ± 1.4 | 11.99 ± 0.18
293.15 K, x2 = 0.3 | 1020.59 ± 0.53 | 1.4587 ± 0.0005 | 1649.8 ± 1.4 | 8.496 ± 0.13
293.15 K, x2 = 0.4 | 1022.06 ± 0.53 | 1.4604 ± 0.0006 | 1630.1 ± 1.4 | 6.211 ± 0.099
293.15 K, x2 = 0.5 | 1023.46 ± 0.53 | 1.462 ± 0.0006 | 1613.2 ± 1.4 | 4.761 ± 0.075
293.15 K, x2 = 0.596 | 1024.91 ± 0.54 | 1.4634 ± 0.0006 | 1599.1 ± 1.4 | 3.622 ± 0.059
293.15 K, x2 = 0.7 | 1026.57 ± 0.54 | 1.4648 ± 0.0006 | 1587.7 ± 1.4 | 2.883 ± 0.046
293.15 K, x2 = 0.8 | 1028.4 ± 0.54 | 1.4663 ± 0.0006 | 1578.6 ± 1.4 | 2.401 ± 0.039
293.15 K, x2 = 0.907 | 1030.5 ± 0.55 | 1.4677 ± 0.0006 | 1571.4 ± 1.4 | 2.089 ± 0.034
303.15 K, x2 = 0 | 1008.74 ± 0.51 | 1.4488 ± 0.0005 | 1703.7 ± 1.4 | 14.96 ± 0.24
303.15 K, x2 = 0.1 | 1009.8 ± 0.51 | 1.4507 ± 0.0005 | 1668.1 ± 1.4 | 10.93 ± 0.18
303.15 K, x2 = 0.209 | 1011 ± 0.51 | 1.4527 ± 0.0006 | 1638.4 ± 1.4 | 7.985 ± 0.13
303.15 K, x2 = 0.3 | 1012.1 ± 0.51 | 1.4546 ± 0.0006 | 1613.8 ± 1.4 | 5.834 ± 0.095
303.15 K, x2 = 0.4 | 1013.5 ± 0.51 | 1.4563 ± 0.0006 | 1593.6 ± 1.4 | 4.433 ± 0.073
303.15 K, x2 = 0.5 | 1014.9 ± 0.52 | 1.4578 ± 0.0006 | 1576 ± 1.4 | 3.752 ± 0.061
303.15 K, x2 = 0.596 | 1016.3 ± 0.52 | 1.4592 ± 0.0006 | 1561.2 ± 1.4 | 2.822 ± 0.046
303.15 K, x2 = 0.7 | 1018 ± 0.52 | 1.4605 ± 0.0006 | 1549.8 ± 1.4 | 2.296 ± 0.037
303.15 K, x2 = 0.8 | 1019.7 ± 0.53 | 1.4619 ± 0.0006 | 1540.5 ± 1.3 | 1.95 ± 0.032
303.15 K, x2 = 0.907 | 1021.72 ± 0.53 | 1.4632 ± 0.0006 | 1532.7 ± 1.3 | 1.725 ± 0.028
313.15 K, x2 = 0 | 1000.77 ± 0.49 | 1.4449 ± 0.0005 | 1671.2 ± 1.4 | 9.839 ± 0.15
313.15 K, x2 = 0.1 | 1001.6 ± 0.49 | 1.4467 ± 0.0005 | 1634.1 ± 1.4 | 7.429 ± 0.12
313.15 K, x2 = 0.209 | 1002.38 ± 0.49 | 1.4486 ± 0.0005 | 1603.1 ± 1.4 | 5.559 ± 0.091
313.15 K, x2 = 0.3 | 1003.2 ± 0.5 | 1.4505 ± 0.0005 | 1578.6 ± 1.4 | 4.278 ± 0.07
313.15 K, x2 = 0.4 | 1004.2 ± 0.5 | 1.452 ± 0.0006 | 1557.3 ± 1.4 | 3.358 ± 0.055
313.15 K, x2 = 0.5 | 1005.5 ± 0.5 | 1.4534 ± 0.0006 | 1538.9 ± 1.4 | 2.697 ± 0.045
313.15 K, x2 = 0.596 | 1006.9 ± 0.5 | 1.4548 ± 0.0006 | 1523.9 ± 1.3 | 2.245 ± 0.036
313.15 K, x2 = 0.7 | 1008.69 ± 0.51 | 1.4561 ± 0.0006 | 1512.1 ± 1.3 | 1.866 ± 0.03
313.15 K, x2 = 0.8 | 1010.68 ± 0.51 | 1.4575 ± 0.0006 | 1502.6 ± 1.3 | 1.62 ± 0.027
313.15 K, x2 = 0.907 | 1012.79 ± 0.51 | 1.4588 ± 0.0006 | 1494.4 ± 1.3 | 1.462 ± 0.024
323.15 K, x2 = 0 | 992.75 ± 0.5 | 1.4417 ± 0.0005 | 1638.8 ± 1.3 | 6.902 ± 0.11
323.15 K, x2 = 0.1 | 993.31 ± 0.5 | 1.4434 ± 0.0005 | 1600.2 ± 1.4 | 5.386 ± 0.088
323.15 K, x2 = 0.209 | 994 ± 0.5 | 1.4451 ± 0.0005 | 1568.9 ± 1.4 | 4.159 ± 0.069
323.15 K, x2 = 0.3 | 994.64 ± 0.5 | 1.4466 ± 0.0005 | 1544.4 ± 1.4 | 3.289 ± 0.054
323.15 K, x2 = 0.4 | 995.6 ± 0.5 | 1.4479 ± 0.0006 | 1521.5 ± 1.4 | 2.625 ± 0.043
323.15 K, x2 = 0.5 | 996.7 ± 0.49 | 1.4493 ± 0.0006 | 1502 ± 1.3 | 2.173 ± 0.035
323.15 K, x2 = 0.596 | 998.14 ± 0.49 | 1.4506 ± 0.0006 | 1486.7 ± 1.3 | 1.883 ± 0.031
323.15 K, x2 = 0.7 | 999.74 ± 0.49 | 1.4519 ± 0.0006 | 1474.5 ± 1.3 | 1.574 ± 0.026
323.15 K, x2 = 0.8 | 1001.73 ± 0.49 | 1.4533 ± 0.0006 | 1464.8 ± 1.3 | 1.356 ± 0.022
323.15 K, x2 = 0.907 | 1003.86 ± 0.5 | 1.4545 ± 0.0006 | 1456.8 ± 1.3 | 1.24 ± 0.021
